The values below come from article PMC9977718, “A photoswitchable inhibitor of TREK channels controls pain in wild-type intact freely moving animals” (Nature Communications, 2023).

For the assay, the target named is T1, TRESK (Mus musculus, UniProt Q6VV64).
T1 construct: gene Kcnk18
T1 sequence (Q6VV64 1-394): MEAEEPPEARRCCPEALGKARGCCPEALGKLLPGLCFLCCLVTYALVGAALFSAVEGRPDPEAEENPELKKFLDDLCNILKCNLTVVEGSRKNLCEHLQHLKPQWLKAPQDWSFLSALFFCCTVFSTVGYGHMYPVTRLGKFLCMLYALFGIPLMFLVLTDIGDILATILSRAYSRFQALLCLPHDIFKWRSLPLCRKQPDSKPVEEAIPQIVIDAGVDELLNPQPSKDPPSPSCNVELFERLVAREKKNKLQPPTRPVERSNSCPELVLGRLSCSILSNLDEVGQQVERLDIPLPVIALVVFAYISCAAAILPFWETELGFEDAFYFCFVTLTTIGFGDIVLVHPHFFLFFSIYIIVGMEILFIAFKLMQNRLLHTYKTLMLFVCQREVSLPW
As to the kind of experiment: whole-cell patch clamp, photoblock of mouse versus human channel. It counts as cell-based. In general terms: The patch-clamp technique gives a direct electrical read-out from membranes.

Consider `COc1ccccc1C(=O)Nc1cccc(N=Nc2cccc(C)c2)c1` [LAKI], for which the “whole-cell patch clamp, photoblock of mouse versus human channel” value was “LAKI photoblock is conserved among species since TRESK and TRAAK channel inhibitions are similar in mouse and human”.
